According to patent US20060074084A1, “Inhibitors of soluble adenylate cyclase” (priority 2004, published 2006):
Values after ≈ are worked out from the molar mass of the structure shown. Where two headings read alike, the source gives them in different places.

Columns and labels:
[1] = target: soluble, sperm-specific adenylate cyclase (sAC) (Homo sapiens, UniProt Q96PN6); test: sAC-Assay (enzyme test, HTRF cAMP detection); type: biochemical
Text: In a suitable buffer system, the soluble, sperm-specific adenylate cyclase catalyzes the reaction of adenosine triphosphate (ATP) to cyclic adenosine monophosphate (cAMP) and pyrophosphate. Free cAMP that is generated in this way is then used in a competitive detection process, in which the binding of a europium kryptate (Eu[K])-labeled anti-cAMP antibody (anti cAMP-Eu[K]-AK) to a cAMP-molecule-labeled, modified allophycocyanine-1 molecule (cAMP-XL665) is prevented. In the absence of exogenic cAMP, after excitation at 335 nm, it results in a fluorescence resonance energy transfer (FRET) between the anti cAMP-Eu[K]-AK (FRET-donor) and the cAMP-XL665 molecule (FRET-acceptor). This process is quantified at different times (time-resolved) based on the emission of FRET-acceptor XL665 (665 nm and 620 nm). A signal drop (measured as a wave ratio; calculation formula: [(E665 nm/E620 nm)×10000]) can be attributed to the presence of cAMP and thus to the activity of sAC.
First, 1.5 μl of the test substance (in 30% DMSO), only 30% DMSO in the solvent controls, is introduced per recess in a 384-hole test plate (polystyrene; 384, NV). Then, 10 μl of a dilute sAC enzyme solution is recovered (enzyme stock solution in 300 mmol of NaCl, 10% glycerol; pH 7.6; intermediate and final enzyme dilution a) 1:10 and b) 1:2000 in each case in: 1.0 mmol of MnCl2; 0.2% BSA; 50 mmol of tris, pH 7.5 in H2O). The enzyme reaction is started by adding 5 μl of the ATP-substrate solution (200 μmol of ATP in H2O) and is completed after incubation (25 minutes at room temperature) by the addition of 5 μl of stop solution (200 μmol of EDTA in PBS).
Then, 8 μl of detection solution 1 is introduced into a recess of the 384-hole measuring plate (measuring plate: polystyrene; 384, SV—black; detection solution 1:50 μl of cAMP-XL665; 950 μl of reconstitution buffer; 2200 [[…] of PBS; cAMP-XL665: production by the addition of 5 ml of H2O to the freeze-dried product as specified by Cis Bio Kit: #62AMPPEC instructions; storage: aliquoted at −80° C.). Then, 3 μl from the 91.5 μl is added to the corresponding recess of the test plate. Finally, the addition of 8 μl of detection solution 2 (detection solution 2: 50 μl of anti cAMP-Eu[K]-AK; 950 μl of reconstitution buffer; 2200 μl of PBS; anti cAMP-Eu[K]-AK: production as specified by Cis Bio Kit: #62AMPPEC instructions; storage: aliquoted at −80° C.) is carried out.
After an additional incubation of 90 minutes at room temperature, the HTRF result is measured either on the Packard Discovery or with the RubiStar HTRF measuring device (Delay: 50 μs; Integration time: 400 μs).

Solubility = type: physicochemical
[2] = Biological Data table, read-out: Solubility
[3] = comparison with known compounds in the enzyme test

soluble, sperm-specific adenylate cyclase (sAC), sequence (Q96PN6 whole entry): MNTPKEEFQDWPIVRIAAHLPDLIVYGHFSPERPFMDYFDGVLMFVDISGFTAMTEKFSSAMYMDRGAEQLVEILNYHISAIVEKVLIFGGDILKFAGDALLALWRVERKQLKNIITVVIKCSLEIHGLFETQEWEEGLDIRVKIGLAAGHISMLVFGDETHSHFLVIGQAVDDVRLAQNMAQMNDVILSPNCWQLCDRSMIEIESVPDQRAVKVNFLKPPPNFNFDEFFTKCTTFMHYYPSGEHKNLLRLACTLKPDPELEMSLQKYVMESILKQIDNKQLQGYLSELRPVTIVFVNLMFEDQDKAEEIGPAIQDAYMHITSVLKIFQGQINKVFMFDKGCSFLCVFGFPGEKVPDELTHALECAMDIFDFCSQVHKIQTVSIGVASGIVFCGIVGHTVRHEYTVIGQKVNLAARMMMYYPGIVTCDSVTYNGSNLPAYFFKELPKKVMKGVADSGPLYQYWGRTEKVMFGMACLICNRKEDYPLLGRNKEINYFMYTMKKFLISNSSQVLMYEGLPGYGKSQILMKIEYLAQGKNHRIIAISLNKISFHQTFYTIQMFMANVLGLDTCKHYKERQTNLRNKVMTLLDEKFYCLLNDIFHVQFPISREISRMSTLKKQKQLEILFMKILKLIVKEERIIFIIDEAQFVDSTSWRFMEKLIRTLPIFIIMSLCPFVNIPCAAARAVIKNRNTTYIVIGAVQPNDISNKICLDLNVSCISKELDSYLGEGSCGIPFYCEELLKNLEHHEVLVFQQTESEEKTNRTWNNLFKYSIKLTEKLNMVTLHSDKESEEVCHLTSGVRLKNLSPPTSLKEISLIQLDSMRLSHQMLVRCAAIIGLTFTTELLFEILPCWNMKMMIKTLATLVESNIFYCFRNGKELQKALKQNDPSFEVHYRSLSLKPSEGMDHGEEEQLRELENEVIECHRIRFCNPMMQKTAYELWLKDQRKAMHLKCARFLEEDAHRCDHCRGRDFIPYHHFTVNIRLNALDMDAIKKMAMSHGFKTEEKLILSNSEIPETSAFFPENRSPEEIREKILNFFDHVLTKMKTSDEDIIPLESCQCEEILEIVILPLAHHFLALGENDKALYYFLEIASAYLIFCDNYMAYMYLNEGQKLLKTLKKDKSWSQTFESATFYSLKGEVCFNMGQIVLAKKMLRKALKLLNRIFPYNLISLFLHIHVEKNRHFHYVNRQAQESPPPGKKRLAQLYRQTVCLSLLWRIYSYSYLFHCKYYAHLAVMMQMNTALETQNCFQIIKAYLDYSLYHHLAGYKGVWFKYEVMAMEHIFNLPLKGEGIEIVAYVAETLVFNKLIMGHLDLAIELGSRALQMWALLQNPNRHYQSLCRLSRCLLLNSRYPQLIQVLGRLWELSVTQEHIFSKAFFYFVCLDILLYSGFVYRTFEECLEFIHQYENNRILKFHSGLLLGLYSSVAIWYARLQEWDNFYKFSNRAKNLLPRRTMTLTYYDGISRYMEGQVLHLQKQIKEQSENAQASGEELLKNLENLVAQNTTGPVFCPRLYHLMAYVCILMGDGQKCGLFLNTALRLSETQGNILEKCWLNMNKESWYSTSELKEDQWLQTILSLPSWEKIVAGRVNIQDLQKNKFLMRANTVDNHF

SMILES | IC50 ([1]; Biological Data table) | solubility (Solubility; [2]) | IC50 [1, 3] | solubility (Solubility; comparison table)
CN(C)CCNC(=O)c1[nH]c2ccc(NS(=O)(=O)c3ccc(C(C)(C)C)cc3)cc2c1-c1ccc(Cl)cc1 [Example 26, 5-(4-tert-Butylbenzenesulfonylamino)-3-(4-chlorophenyl)-1H-indole-2-carboxylic acid-(2-dimethylaminoethyl)amide] | 9900 nM | 3 µg/mL (≈ 5.42 µM) | – | –
CC(C)(C)c1ccc(S(=O)(=O)Nc2ccc3[nH]c(C(=O)NC4CCCCC4)c(-c4ccccc4)c3c2)cc1 [Example 3, 5-(4-tert-Butylbenzenesulfonylamino)-3-phenyl-1H-indole-2-carboxylic acid-cyclohexylamide] | 2000 nM | 1 µg/mL (≈ 1.89 µM) | – | –
CN(C)CCNC(=O)c1[nH]c2ccc(NS(=O)(=O)c3ccc(C(C)(C)C)cc3)cc2c1-c1ccccc1Cl [Example 24, 5-(4-tert-Butylbenzenesulfonylamino)-3-(2-chlorophenyl)-1H-indole-2-carboxylic acid-(2-dimethylaminoethyl)amide] | 1600 nM | 8 µg/mL (≈ 14.5 µM) | – | –
CN(C)CCNC(=O)c1[nH]c2ccc(NS(=O)(=O)c3ccc(C(C)(C)C)cc3)cc2c1-c1cccc(Cl)c1 [Example 25, 5-(4-tert-Butylbenzenesulfonylamino)-3-(3-chlorophenyl)-1H-indole-2-carboxylic acid-(2-dimethylaminoethyl)amide] | 630 nM | 5 µg/mL (≈ 9.04 µM) | 630 nM | 5 µg/mL (≈ 9.04 µM)
CC(C)(C)c1ccc(S(=O)(=O)Nc2ccc3[nH]c(C(=O)Nc4ccncc4)c(-c4ccccc4)c3c2)cc1 [Example 21, 5-(4-tert-Butylbenzenesulfonylamino)-3-phenyl-1H-indole-2-carboxylic acid-pyrindin-4-ylamide] | 3400 nM | 0.1 µg/mL (≈ 0.191 µM) | – | –
CC(C)(C)c1ccc(S(=O)(=O)Nc2ccc3[nH]c(C(=O)Nc4cccnc4)c(-c4ccccc4)c3c2)cc1 [Example 2, 5-(4-tert-Butylbenzenesulfonylamino)-3-phenyl-1H-indole-2-carboxylic acid-pyridin-3-ylamide] | – | 1 µg/mL (≈ 1.91 µM) | – | –
CC(C)(C)c1ccc(S(=O)(=O)Nc2ccc3[nH]c(C(=O)NCCO)c(-c4ccccc4)c3c2)cc1 [Example 37, 5-(4-tert-Butylbenzenesulfonylamino)-3-phenyl-1H-indole-2-carboxylic acid-(2-hydroxyethyl)amide] | 70 nM | 13 µg/mL (≈ 26.4 µM) | – | –
C[C@]12CC[C@@H]3c4cc(O)c(O)cc4CC[C@H]3[C@@H]1CC[C@@H]2O [2-OH-Estradiol, reference compound] | – | – | 11000 nM | –
Cc1ccccc1-c1c(C(=O)NCCN(C)C)[nH]c2ccc(NS(=O)(=O)c3ccc(C(C)(C)C)cc3)cc12 [Example 28, 5-(4-tert-Butylbenzenesulfonylamino)-3-(2-methylphenyl)-1H-indole-2-carboxylic acid-(2-dimethylaminoethyl)amide] | 2700 nM | 5 µg/mL (≈ 9.39 µM) | – | –
CC(C)(C)c1ccc(S(=O)(=O)Nc2ccc3[nH]c(C(=O)NCCN4CCOCC4)c(-c4ccccc4)c3c2)cc1 [Example 19, 5-(4-tert-Butylbenzenesulfonylamino)-3-phenyl-1H-indole-2-carboxylic acid-(2-morpholin-4-ylethyl)amide] | 150 nM | 4 µg/mL (≈ 7.13 µM) | – | –
CN(C)CCNC(=O)c1[nH]c2ccc(NS(=O)(=O)c3ccc(C(C)(C)C)cc3)cc2c1-c1ccccc1 [Example 6, 5-(4-tert-Butylbenzenesulfonylamino)-3-phenyl-1H-indole-2-carboxylic acid-(2-dimethylaminoethyl)amide] | – | 0.1 µg/mL (≈ 0.193 µM) | – | 0.1 µg/mL (≈ 0.193 µM)
C[C@]12CC[C@@H]3c4ccc(O)c(O)c4CC[C@H]3[C@@H]1CC[C@@H]2O [4-OH-Estradiol, reference compound] | – | – | 13000 nM | –
CCCNC(=O)c1[nH]c2ccc(NS(=O)(=O)c3ccc(C(C)(C)C)cc3)cc2c1-c1ccccc1 [Example 9, 5-(4-tert-Butylbenzenesulfonylamino)-3-phenyl-1H-indole-2-carboxylic acid propylamide] | 5300 nM | 1.5 µg/mL (≈ 3.06 µM) | – | –
CC(C)(C)c1ccc(S(=O)(=O)Nc2ccc3[nH]c(C(=O)NC4CCOCC4)c(-c4ccccc4)c3c2)cc1 [Example 40, 5-(4-tert-Butylbenzenesulfonylamino)-3-phenyl-1H-indole-2-carboxylic acid-(tetrahydropyran-4-yl)amide] | 86 nM | 5 µg/mL (≈ 9.4 µM) | 86 nM | 5 µg/mL (≈ 9.4 µM)
COc1ccc(-c2c(C(=O)NCCN(C)C)[nH]c3ccc(NS(=O)(=O)c4ccc(C(C)(C)C)cc4)cc23)cc1 [Example 31, 5-(4-tert-Butylbenzenesulfonylamino)-3-(4-methoxyphenyl)-1H-indole-2-carboxylic acid-(2-dimethylaminoethyl)amide] | 1200 nM | 7 µg/mL (≈ 12.8 µM) | – | –
Cc1ccc(-c2c(C(=O)NCCN(C)C)[nH]c3ccc(NS(=O)(=O)c4ccc(C(C)(C)C)cc4)cc23)cc1 [Example 29, 5-(4-tert-Butylbenzenesulfonylamino)-3-(4-methylphenyl)-1H-indole-2-carboxylic acid-(2-dimethylaminoethyl)amide] | 2000 nM | 7 µg/mL (≈ 13.1 µM) | – | –
CN(C)CCNC(=O)c1[nH]c2ccc(NS(=O)(=O)c3ccc(C(C)(C)C)cc3)cc2c1-c1cccnc1 [Example 32, 5-(4-tert-Butylbenzenesulfonylamino)-3-pyridin-3-yl-1H-indole-2-carboxylic acid-(2-dimethylaminoethyl)amide] | 1300 nM | 55 µg/mL (≈ 106 µM) | – | –
CN1CCN(NC(=O)c2[nH]c3ccc(NS(=O)(=O)c4ccc(C(C)(C)C)cc4)cc3c2-c2ccccc2)CC1 [Example 20, 5-(4-tert-Butylbenzenesulfonylamino)-3-phenyl-1H-indole-2-carboxylic acid-(4-methylpiperazin-1-yl)amide] | 2600 nM | – | – | –
CC(C)(C)c1ccc(S(=O)(=O)Nc2ccc3[nH]c(C(=O)NC4CC4)c(-c4ccccc4)c3c2)cc1 [Example 1, 5-(4-tert-Butylbenzenesulfonylamino)-3-phenyl-1H-indole-2-carboxylic acid-cyclopropylamide] | 3400 nM | 1 µg/mL (≈ 2.05 µM) | – | –
CCCNC(=O)c1[nH]c2ccc(NS(=O)(=O)c3ccc(OC(F)(F)F)cc3)cc2c1-c1ccccc1 [Example 10, 5-(4-(Trifluoromethoxy)benzenesulfonylamino)-3-phenyl-1H-indole-2-carboxylic acid propylamide] | – | 2.1 µg/mL (≈ 4.06 µM) | – | –
